Laboratory results published in the supplement of paper PMC10883282.

Legend:
Test in all cases: relative viability vs DMSO control (72 h) (fraction); higher = more viable cells
[1] = test system: SW982
Summary of the method: (§1)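 A 5 µM positive control and 0.1% DMSO vehicle ran alongside sarcoma cell lines seeded in 384-well plates to reach 80–90% confluence. Serially diluted compound, 2.5 µl from source plates of 10 mM to 0.0002 mM, was added after 24 h, and the plates were held 72 h at 37 °C, 5% CO2. Relative viability was worked out from ATPLite readings as percent growth averaged over up to triplicate wells. The values were rescaled so that 1 is full and 0 is none.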

[2] = test system: VA-ES-BJ
Summary of the method: as §1

[3] = test system: KHOS-240S
Summary of the method: as §1

[4] = test system: MES-SA
Summary of the method: as §1

[5] = test system: RD
Summary of the method: as §1

[6] = test system: SK-LMS-1
Summary of the method: as §1

[7] = test system: SW1353
Summary of the method: as §1

[8] = test system: HS729
Summary of the method: as §1

[9] = test system: A204
Summary of the method: as §1

[10] = test system: SK-ES-1
Summary of the method: as §1

[11] = test system: SW872
Summary of the method: as §1

[12] = test system: G401
Summary of the method: as §1

O=S(=O)(c1cccc2cnccc12)N1CCCNCC1 [Fasudil]
relative viability
Details	0.00051 µM	0.00152 µM	0.00457 µM	0.01372 µM	0.04115 µM	0.1235 µM	0.3704 µM	1.111 µM	3.333 µM	10 µM
[1]	0.974	0.974	0.966	0.987	0.976	0.971	0.961	0.977	0.962	0.966
[2]	0.961	0.962	0.974	0.984	0.945	0.964	0.981	0.985	0.978	0.95
[3]	0.974	0.976	0.961	0.966	0.957	0.961	0.959	0.952	0.942	0.8862
[4]	0.955	0.967	0.96	0.967	0.992	0.967	0.994	0.987	0.941	0.895
[5]	0.969	0.985	0.952	0.978	0.963	0.956	0.961	0.999	1.05	1.06
[6]	1.05	1.05	1.036	1.08	1.03	1.06	1.03	1.05	1.01	0.977
[7]	1.01	1.048	1.03	1.03	1.0327	1	1.04	1.03	0.97	0.888
[8]	0.949	0.964	1.01	0.949	0.953	0.926	0.974	0.957	0.925	0.855
[9]	0.98	1.03	1.02	1.02	1.01	0.987	1.01	0.991	0.973	0.891
[10]	0.955	0.964	0.963	0.967	0.996	0.989	1	1.02	1.06	1.04
[11]	0.959	0.979	0.993	0.964	0.958	0.9735	0.966	0.9852	1	0.929
[12]	0.9413	0.92867	0.943	0.948	0.945	0.975	0.972	0.984	1.01	1

O=C(Nc1nc2cccc(-c3ccc(CN4CCS(=O)(=O)CC4)cc3)n2n1)C1CC1 [Filgotinib]
Details	relative viability
[1], 0.00017 µM	1
[1], 0.00051 µM	1.04
[1], 0.00152 µM	1.06
[1], 0.00457 µM	1.08
[1], 0.01372 µM	1.05
[1], 0.04115 µM	1.06
[1], 0.1235 µM	1.02
[1], 0.3704 µM	1.06
[1], 1.111 µM	1.02
[1], 3.333 µM	1.06
[1], 10 µM	0.939
[2], 0.00017 µM	1.05
[2], 0.00051 µM	1.05
[2], 0.00152 µM	1.05
[2], 0.00457 µM	1.01
[2], 0.01372 µM	1.01
[2], 0.04115 µM	0.997
[2], 0.1235 µM	1.01
[2], 0.3704 µM	1.01
[2], 1.111 µM	0.976
[2], 3.333 µM	0.954
[2], 10 µM	0.851
[3], 0.00017 µM	1.04
[3], 0.00051 µM	1.08
[3], 0.00152 µM	1.06
[3], 0.00457 µM	1.08
[3], 0.01372 µM	1.07
[3], 0.04115 µM	1.07
[3], 0.1235 µM	1.03
[3], 0.3704 µM	1.06
[3], 1.111 µM	1.054
[3], 3.333 µM	1.02
[3], 10 µM	0.932
[4], 0.00017 µM	0.977
[4], 0.00051 µM	0.964
[4], 0.00152 µM	0.943
[4], 0.00457 µM	0.965
[4], 0.01372 µM	0.949
[4], 0.04115 µM	0.953
[4], 0.1235 µM	0.957
[4], 0.3704 µM	0.935
[4], 1.111 µM	0.94
[4], 3.333 µM	0.923
[4], 10 µM	0.736
[5], 0.00017 µM	1.02
[5], 0.00051 µM	1.04
[5], 0.00152 µM	1.04
[5], 0.00457 µM	1.1
[5], 0.01372 µM	1.07
[5], 0.04115 µM	1.1
[5], 0.1235 µM	1.07
[5], 0.3704 µM	1.1
[5], 1.111 µM	1.1
[5], 3.333 µM	1.01
[5], 10 µM	0.846
[6], 0.00017 µM	1.06
[6], 0.00051 µM	1.08
[6], 0.00152 µM	1.06
[6], 0.00457 µM	1.06
[6], 0.01372 µM	1.06
[6], 0.04115 µM	1.08
[6], 0.1235 µM	1.05
[6], 0.3704 µM	1.05
[6], 1.111 µM	1.04
[6], 3.333 µM	1.02
[6], 10 µM	0.866
[7], 0.00017 µM	1.06
[7], 0.00051 µM	1.09
[7], 0.00152 µM	1.05
[7], 0.00457 µM	1.01
[7], 0.01372 µM	1.04
[7], 0.04115 µM	1
[7], 0.1235 µM	0.981
[7], 0.3704 µM	1.02
[7], 1.111 µM	1
[7], 3.333 µM	0.985
[7], 10 µM	0.968
[8], 0.00017 µM	1.04
[8], 0.00051 µM	0.993
[8], 0.00152 µM	0.953
[8], 0.00457 µM	0.95
[8], 0.01372 µM	0.938
[8], 0.04115 µM	0.898
[8], 0.1235 µM	0.888
[8], 0.3704 µM	0.934
[8], 1.111 µM	0.906
[8], 3.333 µM	0.849
[8], 10 µM	0.831
[9], 0.00017 µM	1.09
[9], 0.00051 µM	1.15
[9], 0.00152 µM	1.07
[9], 0.00457 µM	1.068
[9], 0.01372 µM	1.06
[9], 0.04115 µM	1.14
[9], 0.1235 µM	1.13
[9], 0.3704 µM	1.1
[9], 1.111 µM	1.12
[9], 3.333 µM	1.14
[9], 10 µM	0.974
[10], 0.00017 µM	1.02
[10], 0.00051 µM	1.06
[10], 0.00152 µM	1.07
[10], 0.00457 µM	1.04
[10], 0.01372 µM	1.06
[10], 0.04115 µM	1.07
[10], 0.1235 µM	1.04
[10], 0.3704 µM	1.03
[10], 1.111 µM	1
[10], 3.333 µM	1.05
[10], 10 µM	0.8196
[11], 0.00017 µM	1.07
[11], 0.00051 µM	1.02
[11], 0.00152 µM	1.05
[11], 0.00457 µM	1.03
[11], 0.01372 µM	1.04
[11], 0.04115 µM	1.01
[11], 0.1235 µM	1.02
[11], 0.3704 µM	1.02
[11], 1.111 µM	1.03
[11], 3.333 µM	1.02
[11], 10 µM	0.933
[12], 0.00017 µM	0.988
[12], 0.00051 µM	1.04
[12], 0.00152 µM	1.027
[12], 0.00457 µM	1.03
[12], 0.01372 µM	1.01
[12], 0.04115 µM	0.995
[12], 0.1235 µM	1.04
[12], 0.3704 µM	1.01
[12], 1.111 µM	1.03
[12], 3.333 µM	1.01
[12], 10 µM	0.911
